{"source": "patent US4839380A", "about": "“1-Thiocarbamoylmethylpyrrolidine-2-thione, medical compositions of, and anti-hypoxic and nootropic use thereof” (priority 1988, dated 1989)", "key": {"rats": {"system": "rats", "assay": "Acute normobaric hypoxia: lifespan of rats", "assay_type": "in vivo", "description": "(§1) The antihypoxic effect of the compound according to the present invention was studied in comparison with pyracetam on various experimental models of hypoxic states in experiments on mice and rats. The compound according to the present invention and pyracetam were administered intraperitoneally in the form of an aqueous emulsion prepared with Tween-80.\n(§2) Investigations were also carried out with a model of an acute normobaric hypoxia.\n(§3) An acute normobaric hypoxia was simulated in a flow-type barometric chamber at an ambient temperature of 17°-22° C. with absorption of carbon dioxide and water. A gas mixture ([…] and 3% of O2) was admitted into the barometric chamber at the rate of 10 1/min. The lifespan of test animals (mice, rats) in the chambers was recorded since the moment of the mixture admission into the chamber till the moment of perdition of the animals which was adjudicated by an agonal breathing against the background of convulsions. The modes of administration of the preparations, species of animals and analysis of the results of the experiments are similar to those described hereinbefore for the case of an acute hypobaric hypoxia. The experiments were carried out using 50 mice and 20 rats."}, "mice [1]": {"system": "mice", "assay": "Acute normobaric hypoxia: lifespan of mice", "assay_type": "in vivo", "description": "as §1, §2, §3"}, "mice [2]": {"system": "mice", "assay": "Memory consolidation: conditioned reflex of passive avoidance in a two-chamber unit", "assay_type": "in vivo, mice (nondescript male white)", "description": "The study of the effect on processes of consolidation (fixation) of memory was carried out on 400 nondescript male white mice with a mass of 18-20 g using the procedure of a conditioned reflex of passive avoidance in a two-chamber unit, one of the chambers being darkened. In the bottom of the dark chamber an electrode floor is mounted, to which an electric current (50-60 V) can be applied.\nDue to their biological specific features, mice prefer to stay in the dark chamber. At the end of the exposure lasting for 180 seconds of the residence of an animal in the dark chamber which, as a rule, actually takes place, an electric current is applied to the irritating device and a mouse is forced to leave its shelter.\nTherefore, after a single-time training a conditioned reflex of passive avoidance is elaborated in mice. The resproduction of the effect which is evaluated by the laten period time (in seconds) of the visit to the dark chamber (or by the time of residence in the light chamber) was effected after 24 hours.\nThe compound according to the present invention and pyracetam were administered in doses of 200-250 mg/kg (pyracetam also in the dose of 1,000 mg/kg) intraperitoneally right after elaboration of the conditioned reflex."}, "mice [3]": {"system": "mice", "assay": "Acute hypobaric hypoxia: lifespan of mice at the height of 11,000 m", "assay_type": "in vivo, mice (male, tetrahybrids)", "description": "as §1\nThe studies were carried out on a model of an acute hypobaric hypoxia.\nAn acute […] hypoxia was modelled in a flow-type barometric chamber at an ambient temperature of 17°-20° C. with absorption of carbon dioxide and water.\nThe test animals (male mice, tetrahybrids) with a mass of 15-22 g of the same generation were \"lifted\" (under simulation conditions) at the mean speed of 50 m/sec to the height of 11,000 m at which the lifespan (in minutes) for the same series of experiments was evaluated. Furthermore, the mice were discretely lifted at the same speed to the height of 10,000 m where they stayed for 1 minute and then to the height of 11,000 m, where they again were kept for 1 minute and so on, till their death for the determination of the height \"ceiling\", The animals' death was adjudicated by the occurrence of an agonal breathing against the background of convulsions. The total number of mice employed in the experiments was 200.\nAs the comparison preparation pracetam was used. The compound according to the present invention and pyracetam were administered one hour before the \"lift\"."}, "[4]": {"details": "prior art; cited from earlier work"}, "[5]": {"assay": "Solubility and storage stability", "assay_type": "physicochemical"}, "[6]": {"assay": "Learning speed, performing of conditional reflex and memory consolidation (overall)", "assay_type": "in vivo, rats and mice", "details": "conditional reflex, memory consolidation, versus pyracetam", "description": "The compound according to the present invention was also tested for the effect produced thereby on processes of learning and memorizing.\nThe study of the compound according to the present invention for the speed of learning and performing the produced conditioned reflux was effected in experiments on rats using the method of electrodefensive conditioned reflexes of avoidance.\nIn experiments on mice the compound according to the present invention was tested for the effects produced thereby on processes of memory consolidation according to the results of investigation of the conditional response of passive avoidance."}, "mice [7]": {"system": "mice", "assay": "Toxicity and general effect", "assay_type": "in vivo", "description": "The study of toxicity and a general effect of the compound according to the present invention was effected on mice with a mass of 18-20 g upon an intraperitoneal administration of the compound according to the present invention in doses of from 100 to 1.500 mg/kg."}}, "data": [{"smiles": "NC(=O)CN1CCCC1=O", "note": "[Pyracetam, 1-carbamidomethylpyrrolidone-2, reference compound]", "values": [{"measurement": "lifespan at an acute normobaric hypoxia, rats", "setting": "rats; 250 mg/kg", "value": "inactive"}, {"measurement": "lifespan at an acute normobaric hypoxia, rats", "setting": "rats; 500 mg/kg", "value": "17.3 ± 5.25", "unit": "min"}, {"measurement": "lifespan at an acute normobaric hypoxia, rats, % (control = 100%)", "setting": "rats; 500 mg/kg", "value": "93.0 ± 28.2", "unit": "%"}, {"measurement": "lifespan at an acute normobaric hypoxia, mice", "setting": "mice [1]; mice, 250 mg/kg", "value": "3.73 ± 0.254", "unit": "min"}, {"measurement": "lifespan at an acute normobaric hypoxia, mice, % (control = 100%)", "setting": "mice [1]; mice, 250 mg/kg", "value": "87.7 ± 5.97", "unit": "%"}, {"measurement": "lifespan at an acute normobaric hypoxia, mice", "setting": "mice [1]; mice, 500 mg/kg", "value": "6.08 ± 0.744", "unit": "min"}, {"measurement": "lifespan at an acute normobaric hypoxia, mice, % (control = 100%)", "setting": "mice [1]; mice, 500 mg/kg", "value": "143.1 ± 17.5", "unit": "%"}, {"measurement": "extension of the latent period of the conditioned reflex of passive avoidance (control = 100%)", "setting": "mice [2]; 1.000 mg/kg", "value": 33.7, "unit": "%"}, {"measurement": "effect on the latent period of passive avoidance", "setting": "mice [2]; doses lower than 1.000 mg/kg", "value": "inactive"}, {"measurement": "effect of extension of the latent period of the reflex of passive avoidance", "setting": "mice [2]; only in the dose of 1.000 mg/kg, pyracetam, 1,000 mg/kg", "value": "the same effect"}, {"measurement": "lifespan of mice at the height of 11,000 m", "setting": "mice [3]; 100 mg/kg", "value": "inactive"}, {"measurement": "lifespan of mice at the height of 11,000 m", "setting": "mice [3]; 250 mg/kg", "value": "6.16 ± 0.72", "unit": "min"}, {"measurement": "lifespan of mice at the height of 11,000 m, % (control = 100%)", "setting": "mice [3]; 250 mg/kg", "value": "101.0 ± 11.8", "unit": "%"}, {"measurement": "lifespan of mice at the height of 11,000 m", "setting": "mice [3]; 500 mg/kg", "value": "8.13 ± 2.43", "unit": "min"}, {"measurement": "lifespan of mice at the height of 11,000 m, % (control = 100%)", "setting": "mice [3]; 500 mg/kg", "value": "133.3 ± 39.9", "unit": "%"}, {"measurement": "stimulative effect on the mechanisms of memory consolidation and performance of conditioned reflexes", "setting": "[4]", "value": "absence of a pronounced stimulative effect"}]}, {"smiles": "NC(=S)CN1CCCC1=S", "note": "[Compound of the present invention, 1-thiocarbamylmethylpyrrolidine-2-thione]", "values": [{"measurement": "solubility in N,N-dimethylformamide", "setting": "[5]; N,N-dimethylformamide", "value": "soluble"}, {"measurement": "solubility in ether, hexane", "setting": "[5]; ether, hexane", "value": "insoluble"}, {"measurement": "storage stability", "setting": "[5]; storage", "value": "stable in storage"}, {"measurement": "effective doses smaller than those of pyracetam", "setting": "[6]", "value": "4-5 times"}, {"measurement": "increase of resistance of rats to acute normobaric hypoxia as compared to the control", "setting": "rats; 250 mg/kg", "value": 1.5, "unit": "times"}, {"measurement": "lifespan at an acute normobaric hypoxia, rats", "setting": "rats; 250 mg/kg", "value": "27.38 ± 7.07", "unit": "min"}, {"measurement": "lifespan at an acute normobaric hypoxia, rats, % (control = 100%)", "setting": "rats; 250 mg/kg", "value": "147.2 ± 38.0", "unit": "%"}, {"measurement": "superiority to pyracetam in effectiveness, rats", "setting": "rats; versus pyracetam at 500 mg/kg", "value": 1.5, "unit": "times"}, {"measurement": "increase of resistance of mice to acute normobaric hypoxia as compared to the control", "setting": "mice [1]; mice, 250 mg/kg", "value": 4.5, "unit": "times"}, {"measurement": "lifespan at an acute normobaric hypoxia, mice", "setting": "mice [1]; mice, 250 mg/kg", "value": "22.21 ± 3.23", "unit": "min"}, {"measurement": "lifespan at an acute normobaric hypoxia, mice, % (control = 100%)", "setting": "mice [1]; mice, 250 mg/kg", "value": "469.5 ± 68.3", "unit": "%"}, {"measurement": "superiority to pyracetam in effectiveness, mice", "setting": "mice [1]; mice, versus pyracetam at 500 mg/kg", "value": 3.2, "unit": "times"}, {"measurement": "superiority to pyracetam in effectiveness", "setting": "mice [1]; versus pyracetam at 250 mg/kg", "value": 5, "unit": "times"}, {"measurement": "effective dose lower than that of pyracetam", "setting": "mice [2]; 200 mg/kg versus pyracetam 1.000 mg/kg", "value": 5, "unit": "times"}, {"measurement": "minimal effective dose", "setting": "mice [2]; Mus musculus, ip, 24 h, read-out: effective dose (memory consolidation)", "value": 200, "unit": "mg/kg"}, {"measurement": "duration of the latent period of the reflex of passive avoidance", "setting": "mice [2]; ip, 200 mg/kg, 24 h", "value": "136.2 ± 6.6", "unit": "s"}, {"measurement": "efficiency of the positive influence upon dose increasing", "setting": "mice [2]; up to 500 mg/kg", "value": "does not grow"}, {"measurement": "lifespan of mice at the height of 11,000 m", "setting": "mice [3]; 100 mg/kg", "value": "12.58 ± 8.64", "unit": "min"}, {"measurement": "lifespan of mice at the height of 11,000 m, % (control = 100%)", "setting": "mice [3]; 100 mg/kg", "value": "206.2 ± 59.7", "unit": "%"}, {"measurement": "lifespan of mice at the height of 11,000 m", "setting": "mice [3]; 250 mg/kg", "value": "19.97 ± 4.93", "unit": "min"}, {"measurement": "lifespan of mice at the height of 11,000 m, % (control = 100%)", "setting": "mice [3]; 250 mg/kg", "value": "327.4 ± 80.8", "unit": "%"}, {"measurement": "lifespan of mice at the height of 11,000 m", "setting": "mice [3]; 500 mg/kg", "value": "30.0 ± 0", "unit": "min"}, {"measurement": "lifespan of mice at the height of 11,000 m, % (control = 100%)", "setting": "mice [3]; 500 mg/kg", "value": "491.8 ± 0.0", "unit": "%"}, {"measurement": "superiority to pyracetam in effect on the lifespan duration at 11,000 m", "setting": "mice [3]; versus pyracetam", "value": "3-4 times"}, {"measurement": "toxicity classification", "setting": "mice [7]; based on LD50", "value": "low-toxic"}, {"measurement": "dose with which suppression of a general state of the animals starts", "setting": "mice [7]; mice, intraperitoneal", "value": 250, "unit": "mg/kg"}]}]}
